Assay results from PubChem BioAssay (NCI).
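A five-concentration, 48-hour dose response in 96-well plates underlies each endpoint, interpolated linearly between surrounding concentrations. Here, GI50 denotes the concentration required for 50% inhibition of growth. TGI denotes the concentration required for complete inhibition of growth.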

Tests used:
Test in all cases: growth of human tumour cells (NCI), 48 h
[1] = tested on: LOX IMVI melanoma
[2] = tested on: A498 renal
[3] = tested on: MOLT-4 leukemia
[4] = tested on: RPMI-8226 leukemia
[5] = tested on: RXF 393 renal
[6] = tested on: SK-OV-3 ovarian
[7] = tested on: U251 CNS
[8] = tested on: PC-3 prostate
[9] = tested on: OVCAR-4 ovarian
[10] = tested on: SK-MEL-5 melanoma
[11] = tested on: NCI-H226 lung
[12] = tested on: ACHN renal
[13] = tested on: HOP-62 NSCLC
[14] = tested on: OVCAR-3 ovarian
[15] = tested on: SF-295 CNS
[16] = tested on: SF-539 CNS
[17] = tested on: NCI-H23 lung
[18] = tested on: HOP-92 NSCLC
[19] = tested on: DU-145 prostate
[20] = tested on: SNB-19 CNS
[21] = tested on: SK-MEL-2 melanoma
[22] = tested on: UACC-257 melanoma
[23] = tested on: UACC-62 melanoma
[24] = tested on: HT29 colon
[25] = tested on: HCT-15 colon
[26] = tested on: CCRF-CEM leukemia
[27] = tested on: IGROV1 ovarian
[28] = tested on: SK-MEL-28 melanoma
[29] = tested on: HS 578T breast
[30] = tested on: SR leukemia
[31] = tested on: 786-0 renal
[32] = tested on: TK-10 renal
[33] = tested on: SN12C renal
[34] = tested on: OVCAR-5 ovarian
[35] = tested on: CAKI-1 renal
[36] = tested on: UO-31 renal
[37] = tested on: MALME-3M melanoma
[38] = tested on: EKVX NSCLC
[39] = tested on: T-47D breast
[40] = tested on: MDA-MB-435
[41] = tested on: HCC-2998 colon
[42] = tested on: COLO 205 colon
[43] = tested on: HL-60(TB) leukemia
[44] = tested on: K-562 leukemia
[45] = tested on: SNB-75 CNS
[46] = tested on: NCI-H522 lung
[47] = tested on: HCT-116 colon
[48] = tested on: MDA-MB-231 breast
[49] = tested on: OVCAR-8 ovarian
[50] = tested on: SW-620 colon
[51] = tested on: NCI/ADR-RES ovarian
[52] = tested on: BT-549 breast
[53] = tested on: KM12 colon
[54] = tested on: NCI-H460 lung
[55] = tested on: A549 NSCLC
[56] = tested on: SF-268 CNS
[57] = tested on: M14 melanoma

With `Clc1ccc2c(NCCCN3CCN(c4nc(-n5ccnc5)nc5ccccc45)CC3)ccnc2c1` the GI50 [1] was 1.84 µM, the TGI [1] was 3.69 µM and the GI50 [2] was 2.55 µM. The TGI [2] was over 26.8 µM, the GI50 [3] was 2.38 µM and the TGI [3] was 6.85 µM. The GI50 [4] was 2.21 µM, the TGI [4] was 5.19 µM and the GI50 [5] was 1.67 µM. For the same compound, the TGI [5] was 3.34 µM, the GI50 [6] was over 47.3 µM and the TGI [6] was over 62.8 µM. It also gave a GI50 [7] of 1.89 µM, a TGI [7] of 3.53 µM and a TGI [8] of over 100 µM. It also gave a GI50 [9] of over 100 µM, a TGI [9] of over 100 µM and a GI50 [10] of 1.74 µM. The TGI [10] was 3.17 µM, the GI50 [11] was over 100 µM and the TGI [11] was over 100 µM. It also gave a GI50 [12] of over 23.4 µM, a TGI [12] of over 56.5 µM and a GI50 [13] of 44.8 µM. The TGI [13] was over 100 µM, the GI50 [14] was 1.55 µM and the TGI [14] was 3.15 µM. It also gave a GI50 [15] of 1.88 µM, a TGI [15] of 3.52 µM and a GI50 [16] of 1.81 µM. For the same compound, the TGI [16] was 3.34 µM, the GI50 [17] was over 27.5 µM and the TGI [17] was over 100 µM. It also gave a GI50 [18] of 14.3 µM, a TGI [18] of over 62.3 µM and a GI50 [19] of over 100 µM. It also gave a TGI [19] of over 100 µM, a GI50 [20] of 2.55 µM and a TGI [20] of 6.49 µM. It also gave a GI50 [21] of 12.3 µM, a TGI [21] of over 22.1 µM and a GI50 [22] of 2 µM. The TGI [22] was 3.81 µM, the GI50 [23] was over 37.7 µM and the TGI [23] was over 67.1 µM. For the same compound, the GI50 [24] was 1.88 µM, the TGI [24] was 4.47 µM and the GI50 [25] was 1.61 µM. For the same compound, the TGI [25] was 3.8 µM, the GI50 [26] was 2.87 µM and the TGI [26] was over 100 µM. For the same compound, the GI50 [27] was 2.96 µM, the TGI [27] was 23.7 µM and the GI50 [28] was 1.8 µM. It also gave a TGI [28] of 3.34 µM, a GI50 [29] of 2.28 µM and a TGI [29] of 19.2 µM. It also gave a GI50 [30] of 1.9 µM, a TGI [30] of 5.7 µM and a GI50 [31] of 1.66 µM. The TGI [31] was 3.21 µM, the GI50 [32] was 1.72 µM and the TGI [32] was 3.39 µM. For the same compound, the GI50 [33] was over 100 µM, the TGI [33] was over 100 µM and the GI50 [34] was over 100 µM. For the same compound, the TGI [34] was over 100 µM, the GI50 [35] was 8.91 µM and the GI50 [36] was 2.49 µM. The GI50 [37] was 1.91 µM, the TGI [37] was 3.56 µM and the GI50 [38] was over 28.4 µM. It also gave a TGI [38] of over 100 µM, a GI50 [39] of over 100 µM and a TGI [39] of over 100 µM. It also gave a GI50 [40] of 1.74 µM, a TGI [40] of 3.2 µM and a GI50 [41] of over 100 µM. The TGI [41] was over 100 µM, the GI50 [42] was over 100 µM and the TGI [42] was over 100 µM. It also gave a GI50 [43] of 2.17 µM, a TGI [43] of 5.18 µM and a GI50 [44] of 2.1 µM. The TGI [44] was 6.13 µM, the GI50 [45] was 1.58 µM and the TGI [45] was 3.25 µM. For the same compound, the TGI [46] was over 22.3 µM.

`O=C(NCCNCCO)c1ccc2oc3cc4ccccc4c(=O)n3c2c1` was tested, and the GI50 [1] was 6.72 µM, the TGI [1] was 14 µM and the GI50 [47] was 8.42 µM. For the same compound, the TGI [47] was 19.8 µM, the GI50 [3] was 6.88 µM and the TGI [3] was over 50 µM. It also gave a GI50 [4] of 12.5 µM, a TGI [4] of 35.6 µM and a GI50 [5] of 9.96 µM. It also gave a TGI [5] of 21.1 µM, a GI50 [6] of 8.66 µM and a TGI [6] of 20.4 µM. The GI50 [7] was 8.52 µM, the TGI [7] was 17.1 µM and the GI50 [8] was 13.2 µM. For the same compound, the TGI [8] was over 50 µM, the GI50 [9] was 15.8 µM and the TGI [9] was 36.8 µM. The GI50 [10] was 9.26 µM, the TGI [10] was 16.4 µM and the GI50 [13] was 9.6 µM. For the same compound, the TGI [13] was 25.5 µM, the GI50 [15] was 14.8 µM and the TGI [15] was over 50 µM. For the same compound, the GI50 [17] was 9.97 µM, the TGI [17] was 23.4 µM and the GI50 [48] was 8.12 µM. The TGI [48] was 19.9 µM, the GI50 [18] was 7.96 µM and the TGI [18] was 29.6 µM. It also gave a GI50 [20] of 14.1 µM, a TGI [20] of 40.9 µM and a GI50 [21] of 6.52 µM. For the same compound, the TGI [21] was 15.5 µM, the GI50 [22] was 9.88 µM and the TGI [22] was 20.2 µM. It also gave a GI50 [23] of 7.85 µM, a TGI [23] of 19 µM and a GI50 [24] of 16.1 µM. For the same compound, the TGI [24] was over 50 µM, the GI50 [27] was 5.77 µM and the TGI [27] was 17.7 µM. For the same compound, the GI50 [49] was 8.33 µM, the TGI [49] was 25.5 µM and the GI50 [28] was 22.8 µM. It also gave a TGI [28] of over 50 µM, a GI50 [30] of 4.64 µM and a TGI [30] of over 50 µM. The GI50 [31] was 14.6 µM, the TGI [31] was 44.4 µM and the GI50 [50] was 5.93 µM. For the same compound, the TGI [50] was 14.7 µM, the GI50 [51] was over 50 µM and the TGI [51] was over 50 µM. For the same compound, the GI50 [32] was 9.93 µM, the TGI [32] was 20.3 µM and the GI50 [52] was 12.3 µM. For the same compound, the TGI [52] was 24.1 µM, the GI50 [33] was 10.7 µM and the TGI [33] was 33 µM. For the same compound, the GI50 [53] was 10.5 µM, the TGI [53] was 40.4 µM and the GI50 [35] was 9.56 µM. For the same compound, the TGI [35] was 29.6 µM, the GI50 [36] was 7.11 µM and the TGI [36] was 16.8 µM. For the same compound, the GI50 [37] was 12.2 µM, the TGI [37] was 24.1 µM and the GI50 [38] was 5.63 µM. For the same compound, the TGI [38] was 19.2 µM, the GI50 [39] was 10.2 µM and the TGI [39] was 27.4 µM. For the same compound, the GI50 [40] was 10.3 µM, the TGI [40] was 24.2 µM and the GI50 [54] was 7.08 µM. It also gave a TGI [54] of 15.4 µM, a GI50 [42] of 12 µM and a TGI [42] of over 50 µM. For the same compound, the GI50 [55] was 17.6 µM, the TGI [55] was over 50 µM and the GI50 [43] was 11.7 µM. For the same compound, the TGI [43] was 34 µM, the GI50 [56] was 7.42 µM and the TGI [56] was 18.5 µM. The GI50 [44] was 14.9 µM, the TGI [44] was over 50 µM and the GI50 [45] was 15.2 µM. It also gave a TGI [45] of 47.5 µM, a GI50 [46] of 5.62 µM and a TGI [46] of 14.2 µM. For the same compound, the GI50 [57] was 8.6 µM and the TGI [57] was 16.7 µM.
